Measurements from the Kinase Knowledgebase extract (Sharma et al. 2016).

Target: PIK3CG (human) (UniProt P48736)
Test: Assessment of PIK3CG Kinase Activity

PIK3CG (human), sequence (P48736 whole entry, looked up): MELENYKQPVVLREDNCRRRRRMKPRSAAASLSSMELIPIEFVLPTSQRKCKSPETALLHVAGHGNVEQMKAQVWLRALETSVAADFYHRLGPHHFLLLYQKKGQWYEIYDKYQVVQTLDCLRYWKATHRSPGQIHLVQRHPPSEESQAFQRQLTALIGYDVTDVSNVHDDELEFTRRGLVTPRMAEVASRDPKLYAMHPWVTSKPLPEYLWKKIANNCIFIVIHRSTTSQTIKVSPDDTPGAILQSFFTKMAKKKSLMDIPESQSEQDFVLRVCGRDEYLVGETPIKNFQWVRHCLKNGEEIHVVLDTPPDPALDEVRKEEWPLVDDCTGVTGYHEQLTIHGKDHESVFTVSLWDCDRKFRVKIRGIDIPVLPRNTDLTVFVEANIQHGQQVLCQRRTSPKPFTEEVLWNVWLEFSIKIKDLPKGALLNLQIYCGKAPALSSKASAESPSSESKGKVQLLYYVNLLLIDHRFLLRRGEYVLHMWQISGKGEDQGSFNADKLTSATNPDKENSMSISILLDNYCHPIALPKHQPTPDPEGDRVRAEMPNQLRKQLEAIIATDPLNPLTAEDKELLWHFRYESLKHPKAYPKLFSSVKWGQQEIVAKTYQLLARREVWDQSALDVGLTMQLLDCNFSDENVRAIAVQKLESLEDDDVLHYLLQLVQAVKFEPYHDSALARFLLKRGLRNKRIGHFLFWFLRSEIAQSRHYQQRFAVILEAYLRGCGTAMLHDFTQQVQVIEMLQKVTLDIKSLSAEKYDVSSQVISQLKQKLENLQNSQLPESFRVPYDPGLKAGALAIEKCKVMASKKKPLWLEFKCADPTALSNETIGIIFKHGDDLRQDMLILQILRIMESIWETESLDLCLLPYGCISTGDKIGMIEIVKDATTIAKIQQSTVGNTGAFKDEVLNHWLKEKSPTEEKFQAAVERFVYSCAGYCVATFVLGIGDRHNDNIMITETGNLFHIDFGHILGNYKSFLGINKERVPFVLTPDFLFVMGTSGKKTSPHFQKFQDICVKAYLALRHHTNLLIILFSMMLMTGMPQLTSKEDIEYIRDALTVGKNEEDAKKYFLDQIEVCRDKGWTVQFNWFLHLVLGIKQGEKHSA

Structure (SMILES) | IC50
O=C(CC1CC1)N[C@H]1CCN(C(=O)Nc2nc3c(s2)-c2nc(-c4ccccc4Cl)ncc2CC3)C1 | < 800 nM
CC(C)(C)OC(=O)CC1(O)CCN(C(=O)Nc2nc3c(s2)-c2nc(-c4ccccc4Cl)ncc2CC3)CC1 | < 800 nM
O=C(Nc1nc2c(s1)-c1nc(-c3ccccc3Cl)ncc1CC2)N1CCC(c2c[nH]c3ccccc23)CC1 | < 800 nM
CN(Cc1cccc(CNC(=O)Nc2nc3c(s2)-c2nc(-c4ccccc4Cl)ncc2CC3)c1)C(=O)OC(C)(C)C | < 800 nM
O=C(O)[C@H]1[C@H](c2ccccc2)CCN1C(=O)Nc1nc2c(s1)-c1nc(-c3ccccc3Cl)ncc1CC2 | < 800 nM
O=C(Nc1nc2c(s1)-c1nc(-c3cccc(F)c3Cl)ncc1CC2)NC1CC1 | < 800 nM
CN(C)S(=O)(=O)N[C@H]1CCN(C(=O)Nc2nc3c(s2)-c2nc(-c4ccccc4Cl)ncc2CC3)C1 | < 800 nM
O=C(Nc1nc2c(s1)-c1nc(-c3ccccc3Cl)ncc1CC2)N1CCC(CN2CCc3ccccc3C2=O)C1 (stereo not given) | < 800 nM
O=C(NCc1cccc(NC(=O)C2CCCC2)c1)Nc1nc2c(s1)-c1nc(-c3ccccc3Cl)ncc1CC2 | < 800 nM
CC1(C)C(c2ccccc2)CCN1C(=O)Nc1nc2c(s1)-c1nc(-c3ccccc3Cl)ncc1CC2 (stereo not given) | < 800 nM
CC(C)(C)OC(=O)N1CCN(c2cccc(NC(=O)Nc3nc4c(s3)-c3nc(-c5ccccc5Cl)ncc3CC4)c2)CC1 | < 800 nM
CC(C)OC(=O)N[C@H]1CCN(C(=O)Nc2nc3c(s2)-c2nc(-c4ccccc4Cl)ncc2CC3)C1 | < 800 nM
CN(C(=O)OC(C)(C)C)C1CCN(C(=O)Nc2nc3c(s2)-c2nc(-c4ccccc4Cl)ncc2CC3)C1 (stereo not given) | < 800 nM
NC(=O)Nc1nc2c(s1)-c1nc(-c3ccccc3C(F)(F)F)ncc1CC2 | < 800 nM
O=C(NCc1cc(C2CC2)n[nH]1)Nc1nc2c(s1)-c1nc(-c3ccccc3C(F)(F)F)ncc1CC2 | < 800 nM
O=C1Cc2ccccc2CN1CC1CCN(C(=O)Nc2nc3c(s2)-c2nc(-c4ccccc4Cl)ncc2CC3)C1 (stereo not given) | < 800 nM
O=C(Nc1nc2c(s1)-c1nc(-c3ccccc3Cl)ncc1CC2)N1CCC(NC(=O)C(F)(F)F)C1 (stereo not given) | < 800 nM
CC(C)(C)OC(=O)NCC1CCCN1C(=O)Nc1nc2c(s1)-c1nc(-c3ccccc3Cl)ncc1CC2 (stereo not given) | < 800 nM
CC(C)OC(=O)N[C@@H]1CCN(C(=O)Nc2nc3c(s2)-c2nc(-c4ccccc4Cl)ncc2CC3)C1 | < 800 nM
O=C(NC[C@@H]1CCCN1C(=O)OCc1ccccc1)Nc1nc2c(s1)-c1nc(-c3ccccc3Cl)ncc1CC2 | < 800 nM

Structure (SMILES) | IC50
CC(=O)N[C@@H]1CCN(C(=O)Nc2nc3c(s2)-c2nc(-c4ccccc4Cl)ncc2CC3)C1 | < 800 nM
COCCC(=O)N[C@H]1CCN(C(=O)Nc2nc3c(s2)-c2nc(-c4ccccc4Cl)ncc2CC3)C1 | < 800 nM
O=C(NCc1cccc(NC(=O)N2CCCC2)c1)Nc1nc2c(s1)-c1nc(-c3ccccc3Cl)ncc1CC2 | < 800 nM
O=C(Nc1nc2c(s1)-c1nc(-c3ccccc3Cl)ncc1CC2)N1CC[C@@H](NC(=O)N2CCOCC2)C1 | < 800 nM
O=C(Nc1nc2c(s1)-c1nc(-c3ccccc3Cl)ncc1CC2)N1CC[C@H](NC(=O)C(F)(F)F)C1 | < 800 nM
CC1CC(c2ccc(O)cc2)CN1C(=O)Nc1nc2c(s1)-c1nc(-c3ccccc3Cl)ncc1CC2 (stereo not given) | < 800 nM
CN1CCN(Cc2ccc(NC(=O)Nc3nc4c(s3)-c3nc(-c5ccccc5Cl)ncc3CC4)cc2)CC1 | < 800 nM
O=C(Nc1nc2c(s1)-c1nc(-c3ccccc3Cl)ncc1CC2)NC1CCC(N2CCNC2=O)CC1 (stereo not given) | < 800 nM
CC(C)COC(=O)N[C@@H]1CCN(C(=O)Nc2nc3c(s2)-c2nc(-c4ccccc4Cl)ncc2CC3)C1 | < 800 nM
O=C(O)CC1(CNC(=O)Nc2nc3c(s2)-c2nc(-c4ccccc4Cl)ncc2CC3)CCCCC1 | < 800 nM
CC(NC(=O)Nc1nc2c(s1)-c1nc(-c3ccccc3Cl)ncc1CC2)c1cccc(NC(=O)OC(C)(C)C)c1 (stereo not given) | < 800 nM
CN(C)C(=O)Nc1cccc(CNC(=O)Nc2nc3c(s2)-c2nc(-c4ccccc4Cl)ncc2CC3)c1 | < 800 nM
O=C(Nc1nc2c(s1)-c1nc(-c3ccccc3Cl)ncc1CC2)N1CCCC(C(O)c2ccccc2)C1 (stereo not given) | < 800 nM
COCC(=O)N[C@H]1CCN(C(=O)Nc2nc3c(s2)-c2nc(-c4ccccc4Cl)ncc2CC3)C1 | < 800 nM
Cc1ccc(CN2CC(CNC(=O)Nc3nc4c(s3)-c3nc(-c5ccccc5Cl)ncc3CC4)CC2=O)cc1 (stereo not given) | < 800 nM
CNC(=O)Nc1nc2c(s1)-c1nc(C(C)(C)C)ncc1CC2 | < 800 nM
CC(C)(C)OC(=O)CCNC(=O)Nc1nc2c(s1)-c1nc(C(C)(C)C)ncc1CC2 | < 800 nM
CC(C)(C)OC(=O)NCc1cccc(CNC(=O)Nc2nc3c(s2)-c2nc(-c4ccccc4Cl)ncc2CC3)c1 | < 800 nM
CCN(CC)C(=O)N[C@H]1CCN(C(=O)Nc2nc3c(s2)-c2nc(-c4ccccc4Cl)ncc2CC3)C1 | < 800 nM

Results, then the compound that gave them:

IC50 | Structure (SMILES)
< 800 nM | O=C(NCCc1nc(C2CC2)no1)Nc1nc2c(s1)-c1nc(-c3ccccc3Br)ncc1CC2
< 800 nM | O=C(CCNC(=O)Nc1nc2c(s1)-c1nc(-c3ccccc3Cl)ncc1CC2)NC1CCCC1
< 800 nM | CC(C)CNC(=O)Nc1nc2c(s1)-c1nc(-c3cccc(F)c3Cl)ncc1CC2
< 800 nM | CCN1CCC[C@H]1CNC(=O)Nc1nc2c(s1)-c1nc(-c3ccccc3Cl)ncc1CC2
< 800 nM | CC(C)C(=O)N[C@H]1CCN(C(=O)Nc2nc3c(s2)-c2nc(-c4ccccc4Cl)ncc2CC3)C1
< 800 nM | CC(C)CCNC(=O)CCNC(=O)Nc1nc2c(s1)-c1nc(-c3ccccc3Cl)ncc1CC2
< 800 nM | CC(C)c1cnc(CCNC(=O)Nc2nc3c(s2)-c2nc(-c4ccccc4Br)ncc2CC3)o1
< 800 nM | CN(C)C(=O)c1cccc(CNC(=O)Nc2nc3c(s2)-c2nc(-c4ccccc4Cl)ncc2CC3)c1
< 800 nM | COCCNC(=O)Nc1nc2c(s1)-c1nc(-c3ccccc3Cl)ncc1CC2
< 800 nM | O=C(Nc1nc2c(s1)-c1nc(-c3ccccc3Cl)ncc1CC2)NC1CCC1
< 800 nM | Cc1nc2ccccc2n1CC(C)(C)NC(=O)Nc1nc2c(s1)-c1nc(-c3ccccc3Cl)ncc1CC2
< 800 nM | COc1cccc(CNC(=O)Nc2nc3c(s2)-c2nc(-c4ccccc4Cl)ncc2CC3)c1
< 800 nM | O=C(NCc1cccs1)Nc1nc2c(s1)-c1nc(-c3ccccc3Cl)ncc1CC2
< 800 nM | O=C(NCCC(=O)N1CCCC1)Nc1nc2c(s1)-c1nc(-c3ccccc3Cl)ncc1CC2
< 800 nM | CNC(=O)Nc1nc2c(s1)-c1nc(-c3ccccc3F)ncc1CC2
< 800 nM | Cn1cc(CNC(=O)Nc2nc3c(s2)-c2nc(-c4ccccc4Br)ncc2CC3)cn1
< 800 nM | CN1CCC(CNC(=O)Nc2nc3c(s2)-c2nc(-c4ccccc4Cl)ncc2CC3)CC1
< 800 nM | O=C(NCc1cc(C2CC2)n[nH]1)Nc1nc2c(s1)-c1nc(-c3ccccc3Cl)ncc1CC2
< 800 nM | Cn1cccc1CCNC(=O)Nc1nc2c(s1)-c1nc(-c3ccccc3Cl)ncc1CC2
< 800 nM | O=C(NCCN1CCOCC1)Nc1nc2c(s1)-c1nc(-c3ccccc3Cl)ncc1CC2
< 800 nM | O=C(NCC1CCCCC1)Nc1nc2c(s1)-c1nc(-c3ccccc3Cl)ncc1CC2
< 800 nM | CC(C)CNC(=O)N[C@H]1CCN(C(=O)Nc2nc3c(s2)-c2nc(-c4ccccc4Cl)ncc2CC3)C1
< 800 nM | CC(C)c1nnc(CCNC(=O)Nc2nc3c(s2)-c2nc(-c4ccccc4Cl)ncc2CC3)o1
< 800 nM | CCc1csc(CCNC(=O)Nc2nc3c(s2)-c2nc(-c4ccccc4F)ncc2CC3)n1
< 800 nM | CCc1cnc(CCNC(=O)Nc2nc3c(s2)-c2nc(-c4ccccc4Br)ncc2CC3)o1
< 800 nM | CC(C)c1nnc(CCNC(=O)Nc2nc3c(s2)-c2nc(-c4ccccc4Br)ncc2CC3)o1

IC50 | Structure (SMILES)
< 800 nM | O=C(CCNC(=O)Nc1nc2c(s1)-c1nc(-c3ccccc3Cl)ncc1CC2)NC1CC1
< 800 nM | CCOCCNC(=O)Nc1nc2c(s1)-c1nc(-c3ccccc3Cl)ncc1CC2
< 800 nM | CN(C)CCNC(=O)Nc1nc2c(s1)-c1nc(-c3ccccc3Cl)ncc1CC2
< 800 nM | CC(=O)Nc1cccc(CNC(=O)Nc2nc3c(s2)-c2nc(-c4ccccc4Cl)ncc2CC3)c1
< 800 nM | CCc1noc(CCNC(=O)Nc2nc3c(s2)-c2nc(-c4ccccc4Br)ncc2CC3)n1
< 800 nM | O=C(NCc1ccccc1)Nc1nc2c(s1)-c1nc(-c3ccccc3Cl)ncc1CC2
< 800 nM | Cn1ccc(CNC(=O)Nc2nc3c(s2)-c2nc(-c4ccccc4Cl)ncc2CC3)n1
< 800 nM | COc1cccc([C@@H](C)NC(=O)Nc2nc3c(s2)-c2nc(-c4ccccc4Cl)ncc2CC3)c1
< 800 nM | CC(C)OCCCNC(=O)Nc1nc2c(s1)-c1nc(-c3ccccc3Cl)ncc1CC2
< 800 nM | COc1cccc([C@H](C)NC(=O)Nc2nc3c(s2)-c2nc(-c4ccccc4Cl)ncc2CC3)c1
< 800 nM | CCc1cnc(CCNC(=O)Nc2nc3c(s2)-c2nc(C(C)(C)C)ncc2CC3)o1
< 800 nM | CC(C)NC(=O)c1cccc(CNC(=O)Nc2nc3c(s2)-c2nc(-c4ccccc4Cl)ncc2CC3)c1
< 800 nM | O=C(NCCc1cn[nH]c1)Nc1nc2c(s1)-c1nc(-c3ccccc3Cl)ncc1CC2
< 800 nM | CNC(=O)Nc1nc2c(s1)-c1nc(-c3ccccc3C(F)(F)F)ncc1CC2
< 800 nM | N#Cc1cccc(CNC(=O)Nc2nc3c(s2)-c2nc(-c4ccccc4Cl)ncc2CC3)c1
< 800 nM | O=C(NCc1ccc2c(c1)OCO2)Nc1nc2c(s1)-c1nc(-c3ccccc3Cl)ncc1CC2
< 800 nM | CC(C)c1nnc(CCNC(=O)Nc2nc3c(s2)-c2nc(-c4ccccc4C(F)(F)F)ncc2CC3)o1
< 800 nM | CC(C)CC(=O)N[C@H]1CCN(C(=O)Nc2nc3c(s2)-c2nc(-c4ccccc4Cl)ncc2CC3)C1
< 800 nM | Cn1cc(CNC(=O)Nc2nc3c(s2)-c2nc(-c4ccccc4Cl)ncc2CC3)cn1
< 800 nM | CC(C)c1cccc(CNC(=O)Nc2nc3c(s2)-c2nc(-c4ccccc4Cl)ncc2CC3)c1
< 800 nM | Cc1cccc(CNC(=O)Nc2nc3c(s2)-c2nc(-c4ccccc4Cl)ncc2CC3)c1
< 800 nM | O=C(CCNC(=O)Nc1nc2c(s1)-c1nc(-c3ccccc3Cl)ncc1CC2)NCC1CC1
< 800 nM | CN(C)c1cccc(CNC(=O)Nc2nc3c(s2)-c2nc(-c4ccccc4Cl)ncc2CC3)c1
< 800 nM | CC(C)N(C)C(=O)c1cccc(CNC(=O)Nc2nc3c(s2)-c2nc(-c4ccccc4Cl)ncc2CC3)c1
< 800 nM | CC(C)(C)NC(=O)CCNC(=O)Nc1nc2c(s1)-c1nc(-c3ccccc3Cl)ncc1CC2
